System: c57Black mice
Assay: DSS-induced colitis in mice, fibrotic markers
Type: in vivo
Conditions: DSS 1.5% eight days, IP 180 ng per animal daily
Procedure: C57black mice were treated with dextran sodium sulfate (DSS)-S 1.5% diluted in water for eight days and with or without 5Z-7 (1 uM) was IP injected total 180 ng for each animal Daily. After eight days the mice underwent evaluation to detect abnormalities in the Colom structure. N=14 mice for each group, Student T-test was used to determine the p value. The chart in FIG. 13 compares known markers that are considered as the main morphological phenotype for colitis. […] C57black mice were treated with dextran sodium sulfate (DSS)-S 1.5% diluted in water for eight days and with or without 5Z-7 (1 uM) IP injected total 180 ng for each animal daily. After eight days the mice underwent evaluation to detect abnormalities in the colon structure. In mice treated with DSS all markers of fibrosis such as: granulation, Transparency, fibrin and blood vessels were elevated by the DSS.

For `COc1cc(O)c2c(c1)/C=C/C[C@H](O)[C@H](O)C(=O)/C=C\C[C@H](C)OC2=O` [5Z-7-oxozeaenol], the “fibrotic markers of colitis (granulation, Transparency, fibrin, blood vessels)” value was “reduce the fibrotic markers”.
